Measured values published in EP3322687B1, “2-BENZYL-INDANONE COMPOUNDS AS ANTICANCER AGENT AND A PROCESS FOR PREPARATION THEREOF” (Council of Scientific and Industrial Research, priority 2015, dated 2017).
Several values for one entry are separate records, joined by “and”; a condition that tells them apart may be missing. Identical values can stand only once. Like-named read-outs stand apart in the source and are kept apart here.

Key:
[1] = test system: A549 (Lung); test: Sulforhodamine B cytotoxicity assay; assay type: cell-based; conditions: Homo sapiens, A549; for IC50: SRB, 48 hours incubation, read-out: Human cancer cell lines IC50 A549 (Lung)
Experimental: (§1) The benzyl compounds were evaluated by Sulforhodamine B Assay as per reported method [Skehan etal., J. Natl. Cancer Inst.1990, 82, 1107]. The human cancer cell lines procured from National Cancer Institute, Frederick, U. S. A. were used in present study. Cells were grown in tissue culture flasks in complete growth medium (RPMI-1640 medium with 2 mM glutamine, pH 7.4 supplemented with 10% fetal bovine serum, 100 µg/ml streptomycin and 100 units/ml penicillin) in a carbon dioxide incubator (37°C, 5% CO2, 90% RH). The cells at subconfluent stage were harvested from the flask by treatment with trypsin (0.05% in PBS (pH 7.4) containing 0.02% EDTA). Cells with viability of more than 98%, as determined by trypan blue exclusion, were used for determination of cytotoxicity. The cell suspension required concentration of cells was prepared in complete growth medium. Stock solution of 2x10^-2 M of compounds were prepared in DMSO and further dilution was carried out complete growth medium containing 50µg/ml of gentamycin to obtained working test solution of required concentration. In vitro cytotoxicity against various human cancer cell lines was determined using 96-well cell culture plates. The 100µl of cell suspension was added to each well of the 96-well cell culture plates. The cells were allowed to grow in CO2 incubator (37°C, 5% CO2, 90% RH) for 24 hours. The test materials in complete growth medium (100 µl) were added after 24 hours incubation to the wells containing cell suspension. The plates were further incubated for 48 hours (37°C in an atmosphere of 5% CO2 and 90% relative humidity) in a carbon dioxide incubator after addition of test material and then the cell growth was stopped by gently layering trichloroacetic acid (50% TCA, 50 µl) on top of the medium in all the wells. The plates were incubated at 4°C for one hour to fix the cells attached to the bottom of the wells. The liquid of all the wells was gently pipetted out and discarded. The plates were washed five times with distilled water to remove TCA, growth medium low molecular weight metabolites, serum proteins etc. and air - dried. Cell growth was measured by staining with sulforhodamine B dye. The adsorbed dye was dissolved in Tris-HCl Buffer (100 µl/well, 0.01M, pH 10.4) and plates were gently stirred for 10 minutes on a mechanical stirrer. The optical density (OD) was recorded on ELISA reader at 540nm. Paclitaxel (Taxol), and 5-Fluorouracil were used as positive controls (Standard drugs).

[2] = test system: HCT-116 (Colon); test: Sulforhodamine B cytotoxicity assay; assay type: cell-based; conditions: Homo sapiens, HCT-116; for IC50: SRB, 48 hours incubation, read-out: Human cancer cell lines IC50 HCT-116 (Colon)
Experimental: as §1

[3] = test system: Hela (Cervix); test: Sulforhodamine B cytotoxicity assay; assay type: cell-based; conditions: Homo sapiens, Concentration 20 µM
Experimental: as §1

[4] = test system: MCF-7 (Breast cancer); test: Sulforhodamine B cytotoxicity assay; assay type: cell-based; conditions: Homo sapiens, MCF7; for IC50: SRB, 48 hours incubation, read-out: Human cancer cell lines IC50 MCF-7 (Breast cancer)
Experimental: as §1

[5] = test system: T-47D (Breast cancer); test: Sulforhodamine B cytotoxicity assay; assay type: cell-based; conditions: Homo sapiens, T47D; for IC50: SRB, 48 hours incubation, read-out: Human cancer cell lines IC50 T-47D (Breast cancer)
Experimental: as §1

[6] = test system: THP-1 (Leukemia); test: Sulforhodamine B cytotoxicity assay; assay type: cell-based; conditions: Homo sapiens, THP-1; for IC50: SRB, 48 hours incubation, read-out: Human cancer cell lines IC50 THP-1 (Leukemia)
Experimental: as §1

[7] = test system: Ehrlich Ascites Carcinoma (EAC); assay type: in vivo, Swiss mice; conditions: for % Tumor cell growth: 20 mg/kg i/p day 1-9, Day 12, control = 100; for Mortality: 20 mg/kg i/p day 1-9, Day 12, dead/total animals
Experimental: Ehrlich ascites carcinoma (EAC) cells were collected from the peritoneal cavity of the Swiss mice harbouring 8-10 days old ascitic tumor. 1x10^7 EAC cells were injected intraperitoneally in Swiss mice selected for the experiment on day 0. The next day, animals were randomized and divided into different groups. The treatment groups contained 7 animals each and control group contained 10 animals. The treatment group was treated with 20 mg/kg of Compound 2 intra-peritoneally from day 1-9. One more of the treatment group received 5-fluorouracil (20 mg/kg, i.p) and it served as positive control. The tumor bearing control group was similarly administered normal saline (0.2 ml, i.p.). On day 12, animals were sacrificed and ascitic fluid was collected from peritoneal cavity of each mouse for the evaluation of tumor growth. Percent tumor growth inhibition was calculated based on the total number of tumor cells present in the peritoneal cavity as on day 12 of the experiment using the following formula. Percent tumor growth inhibition = (Av.no.of cells in control group−Av.no.of cells in treated group)/(Av.no.of cells in control group) × 100 [formula]

[8] = test system: Ehrlich Tumor (solid); assay type: in vivo, Swiss mice
Experimental: Ehrlich ascites carcinoma (EAC) cells were collected from the peritoneal cavity of the Swiss mice harbouring 8-10 days old ascitic tumor. 1x10^7 EAC cells were injected intramuscularly in right thigh of Swiss male mice selected for the experiment on day 0. The next day, animals were randomized and divided into different groups. Two treatment groups contained 7 animals each and one control group contained 10 animals. The first treatment group was given compound 2 (20 mg/kg i/p) from day 1-9. The second treatment group was treated with 5-fluorouracil (22 mg/kg, i.p) from day 1-9 and it served as positive control. The control group was similarly administered normal saline (0.2 ml, i.p.) from day 1-9. On day 9 & 13, tumor bearing thigh of each animal was shaved and longest and shortest diameters of the tumor were measured with the help of vernier caliper. Tumor weight of each animal was calculated using the following formula. Tumor weight (mg) = (Length(mm) × ([width(mm)])^2)/(2) [formula]
The percent tumor growth inhibition was calculated on day 13 by comparing the average values of treated groups with that of control group. Tumor growth in saline treated control animals was taken to be 100%. Table 6. In-vivo anticancer activity of 2 against Ehrlich ascites carcinoma (solid)

[9] = test system: tubulin protein; assay type: biochemical; conditions: read-out: Tubulin polymerisation inhibition IC50
Experimental: The tubulin polymerization experiment was performed using 'assay kit'(Cytoskeleton USA) following manufacturer's protocol based on the procedure described by of Shelanski et al, (1973) and Lee et al. (1977). Briefly, tubulin protein (3mg/mL) in tubulin polymerization buffer (80 mM PIPES, pH 6.9, 2 mM MgCl2, 0.5 mM EGTA, 1 mM GTP and 15% glycerol) was placed in prewarmed 96-well microtiter plates at 37° C in the presence of test compounds with variable concentrations. All samples were mixed well and polymerization was monitored kinetically at 340 nm every min for 1h using a Spectramax plate reader. The IC50 value was determined from dose-dependent analysis and is defined as the concentration that inhibits the rate of polymerization by 50%. Podophyllotoxin was used as standard tubulin polymerisation inhibitor as positive control.

O=c1[nH]cc(F)c(=O)[nH]1 [5-Fluorouracil]
inhibition at 20 µM ([1]; Concentration 20 µM): 54% | inhibition at 20 µM ([2]; Concentration 20 µM): 88% | inhibition at 20 µM [3]: 70% | inhibition at 20 µM ([4]; Concentration 20 µM): 50% | inhibition at 20 µM ([5]; Concentration 20 µM): 60% | inhibition at 20 µM ([6]; Concentration 20 µM): 90% | %Tumor Growth Inhibition ([7]; 20 mg/kg i/p day 1-9, Day 12): 95.4% | Av, Volume of ascitic fluid ([7]; 20 mg/kg i/p day 1-9, Day 12): 0.7 mL | Av. No. of tumor cells ([7]; 20 mg/kg i/p day 1-9, Day 12): 6.33 x 10^7 | Av. Weight of ascitic fluid ([7]; 20 mg/kg i/p day 1-9, Day 12): 0.46 g | % Tumor cell growth [7]: 4.6% | Mortality [7]: 0/7 | Day 13 Av. Tumor weights ([8]; 22 mg /Kg i/p day 1-9, Day 13): 842.85 ± 129.92 mg | %Tumor Growth Inhibition ([8]; 22 mg /Kg i/p day 1-9, day 13): 59.07% | Mortality ([8]; 22 mg /Kg i/p day 1-9, dead/total animals): 0/7

COc1cc(C2c3c(cc(OC)c(OC)c3OC)C(=O)C2Cc2ccc(F)cc2)cc(OC)c1OC (centres unmarked) [Compound 4, 2-(4"-fluorobenzyl)-3-(3',4',5'-trimethoxyphenyl)-4,5,6-trimethoxy-indan-1-one]
IC50 [1]: 24 µM | IC50 [2]: 22 µM | IC50 [4]: 45 µM | IC50 [5]: 36 µM | IC50 [6]: 55 µM

COc1ccc(CC2C(=O)c3cc(OC)c(OC)c(OC)c3C2c2cc(OC)c(OC)c(OC)c2)c(OC)c1 (centres unmarked) [Compound 5, 2-(2",4"-dimethoxybenzyl)-3-(3',4',5'-trimethoxyphenyl)-4,5,6-trimethoxy-indan-1-one]
IC50 [1]: 1 µM | IC50 [2]: 4 µM | IC50 [4]: 12 µM | IC50 [5]: 12 µM | IC50 [6]: 1 µM

COc1cc(C2C(=Cc3ccc4c(c3)OCO4)C(=O)c3cc(OC)c(OC)c(OC)c32)cc(OC)c1OC (centres unmarked) [Compound 12, 2-benzo[1,3]dioxo-5-ylmethylene-4,5,6-trimethoxy-3-(3,4,5-trimethoxyphenyl)-indan-1-one]
IC50 [1]: 11 µM | IC50 [2]: 0.1 µM | IC50 [4]: 0.01 µM | IC50 [6]: 4.9 µM | IC50 ([9]; tubulin 3mg/mL, 37° C, 340 nm, 1h): 0.63 µM | %Tumor Growth Inhibition ([7]; 20 mg/kg i/p day 1-9, Day 12): 45.5% and 45.48% | Av, Volume of ascitic fluid ([7]; 20 mg/kg i/p day 1-9, Day 12): 6.11 mL | Av. Weight of ascitic fluid ([7]; 20 mg/kg i/p day 1-9, Day 12): 5.88 g | % Tumor cell growth [7]: 54.52% | Mortality [7]: 0/7 | Body weight Day 1 ([7]; 20 mg/kg i/p day 1-9, EAC-bearing female Swiss mice, Day 1): 21.42 g | Body weight Day 5 ([7]; 20 mg/kg i/p day 1-9, EAC-bearing female Swiss mice, Day 5): 22.85 g | Body weight Day 9 ([7]; 20 mg/kg i/p day 1-9, EAC-bearing female Swiss mice, Day 9): 22.42 g | Body weight Day 12 ([7]; 20 mg/kg i/p day 1-9, EAC-bearing female Swiss mice, Day 12): 23.16 g | Day 13 Av. Tumor weights ([8]; 20 mg/kg i/p day 1-9, Day 13): 1319.64 ± 56.46 mg | %Tumor Growth Inhibition ([8]; 20 mg/kg i/p day 1-9, day 13): 35.9% and 35.91% | Mortality ([8]; 20 mg/kg i/p day 1-9, dead/total animals): 0/7 | Day 13 Av. Body weights ([8]; 20 mg/kg i/p day 1-9, male Swiss mice, Day 13): 23.71 g | Av. Body weights (g) of animals on days 1 ([8]; 20 mg/kg i/p day 1-9, male Swiss mice, day 1): 21.42 g

CC(=O)O[C@H]1C(=O)[C@@]2(C)[C@H]([C@H](OC(=O)c3ccccc3)[C@]3(O)C[C@H](OC(=O)[C@H](O)[C@@H](NC(=O)c4ccccc4)c4ccccc4)C(C)=C1C3(C)C)[C@]1(OC(C)=O)CO[C@@H]1C[C@@H]2O [Paclitaxel, reference compound]
inhibition at 1 µM ([1]; Concentration 1 µM): 88% | inhibition at 1 µM ([2]; Concentration 1 µM): 45% | inhibition at 1 µM ([4]; Concentration 1 µM): 77% | inhibition at 1 µM ([5]; Concentration 1 µM): 78% | inhibition at 1 µM ([6]; Concentration 1 µM): 60%
